Test results: paper PMC12102759 (Protein Science : A Publication of the Protein Society, 2025)
Read-outs that look alike come from different tables or passages of the source.

Tested on: PABPC1 PABC
Format: binding, human
Conditions: DMS-BM library, bait PABPC1 PABC, row aa = residue at this position; for DMS-derived PSSM value (averaged), position E8: E = wild type
[1] = prey ATXN2, peptide KSTLNPNAKEFNPRSF, P = wild type
[2] = prey ATXN2, peptide KSTLNPNAKEFNPRSF, S = wild type
[3] = prey ATXN2, peptide TLNPNAKEFNPRSFSQ, S = wild type
[4] = prey ATXN2, TLNPNAKEFNPRSF(averaged) over the two overlapping peptides, P = wild type
[5] = prey ATXN2, TLNPNAKEFNPRSF(averaged) over the two overlapping peptides, N = wild type
[6] = prey ATXN2, TLNPNAKEFNPRSF(averaged) over the two overlapping peptides, A = wild type
[7] = prey ATXN2, peptide TLNPNAKEFNPRSFSQ, P = wild type
[8] = prey ATXN2, TLNPNAKEFNPRSF(averaged) over the two overlapping peptides, F = wild type
[9] = prey ATXN2, peptide TLNPNAKEFNPRSFSQ, N = wild type
[10] = prey ATXN2, TLNPNAKEFNPRSF(averaged) over the two overlapping peptides, L = wild type
[11] = prey ATXN2, TLNPNAKEFNPRSF(averaged) over the two overlapping peptides
[12] = prey ATXN2, TLNPNAKEFNPRSF(averaged) over the two overlapping peptides, R = wild type

## KSTLNPNAKEFNPRSF P6Q (KSTLNQNAKEFNPRSF)
[1]
  DMS-derived PSSM value, position P6: 0

## KSTLNPNAKEFNPRSF S15K (KSTLNPNAKEFNPRKF)
[2]
  DMS-derived PSSM value, position S15: 0

## TLNPNAKEFNPRSFSQ T1R (RLNPNAKEFNPRSFSQ)
Prey ATXN2, peptide TLNPNAKEFNPRSFSQ, T = wild type
  DMS-derived PSSM value, position T1: 0.08249

## TLNPNAKEFNPRSFSQ S13E (TLNPNAKEFNPREFSQ)
[3]
  DMS-derived PSSM value, position S13: 0.006231

## TLNPNAKEFNPRSF(averaged) P11V (TLNPNAKEFNVRSF)
[4]
  DMS-derived PSSM value (averaged), position P11: 0.44

## TLNPNAKEFNPRSF(averaged) N10V (TLNPNAKEFVPRSF)
[5]
  DMS-derived PSSM value (averaged), position N10: 0.105

## KSTLNPNAKEFNPRSF A8S (KSTLNPNSKEFNPRSF)
Prey ATXN2, peptide KSTLNPNAKEFNPRSF, A = wild type
  DMS-derived PSSM value, position A8: 0

## KSTLNPNAKEFNPRSF P6H (KSTLNHNAKEFNPRSF)
[1]
  DMS-derived PSSM value, position P6: 0.01713

## TLNPNAKEFNPRSF(averaged) A6P (TLNPNPKEFNPRSF)
[6]
  DMS-derived PSSM value (averaged), position A6: 0

## TLNPNAKEFNPRSFSQ P11F (TLNPNAKEFNFRSFSQ)
[7]
  DMS-derived PSSM value, position P11: 0.1255

## KSTLNPNAKEFNPRSF K9I (KSTLNPNAIEFNPRSF)
Prey ATXN2, peptide KSTLNPNAKEFNPRSF, K = wild type
  DMS-derived PSSM value, position K9: 0.4039

## TLNPNAKEFNPRSF(averaged) F14Q (TLNPNAKEFNPRSQ)
[8]
  DMS-derived PSSM value (averaged), position F14: 0.06013

## KSTLNPNAKEFNPRSF P13F (KSTLNPNAKEFNFRSF)
[1]
  DMS-derived PSSM value, position P13: 0.002959

## TLNPNAKEFNPRSFSQ N3E (TLEPNAKEFNPRSFSQ)
[9]
  DMS-derived PSSM value, position N3: 0

## TLNPNAKEFNPRSFSQ N3T (TLTPNAKEFNPRSFSQ)
[9]
  DMS-derived PSSM value, position N3: 0.01993

## TLNPNAKEFNPRSFSQ R12V (TLNPNAKEFNPVSFSQ)
Prey ATXN2, peptide TLNPNAKEFNPRSFSQ, R = wild type
  DMS-derived PSSM value, position R12: 0.1384

## TLNPNAKEFNPRSFSQ L2A (TANPNAKEFNPRSFSQ)
Prey ATXN2, peptide TLNPNAKEFNPRSFSQ, L = wild type
  DMS-derived PSSM value, position L2: 0

## KSTLNPNAKEFNPRSF R14P (KSTLNPNAKEFNPPSF)
Prey ATXN2, peptide KSTLNPNAKEFNPRSF, R = wild type
  DMS-derived PSSM value, position R14: 0.00803

## TLNPNAKEFNPRSFSQ S15F (TLNPNAKEFNPRSFFQ)
[3]
  DMS-derived PSSM value, position S15: 0.01014

## TLNPNAKEFNPRSF(averaged) N5A (TLNPAAKEFNPRSF)
[5]
  DMS-derived PSSM value (averaged), position N5: 0.00733

## TLNPNAKEFNPRSF(averaged) L2R (TRNPNAKEFNPRSF)
[10]
  DMS-derived PSSM value (averaged), position L2: 0

## TLNPNAKEFNPRSF(averaged) E8M (TLNPNAKMFNPRSF)
[11]
  DMS-derived PSSM value (averaged), position E8: 0.02105

## TLNPNAKEFNPRSFSQ P4Y (TLNYNAKEFNPRSFSQ)
[7]
  DMS-derived PSSM value, position P4: 0

## TLNPNAKEFNPRSF
[6]
  DMS-derived PSSM value (averaged), position A6: 0.4881
[11]
  DMS-derived PSSM value (averaged), position E8: 0.1343
[8]
  DMS-derived PSSM value (averaged), position F9: 0.3018
  DMS-derived PSSM value (averaged), position F14: 0.06062
Prey ATXN2, TLNPNAKEFNPRSF(averaged) over the two overlapping peptides, K = wild type
  DMS-derived PSSM value (averaged), position K7: 0.01034
[10]
  DMS-derived PSSM value (averaged), position L2: 0.5343
[5]
  DMS-derived PSSM value (averaged), position N3: 0.5964
  DMS-derived PSSM value (averaged), position N5: 0.0195
  DMS-derived PSSM value (averaged), position N10: 0.05544
[4]
  DMS-derived PSSM value (averaged), position P4: 0.1195
  DMS-derived PSSM value (averaged), position P11: 0.04091
[12]
  DMS-derived PSSM value (averaged), position R12: 0.02883
Prey ATXN2, TLNPNAKEFNPRSF(averaged) over the two overlapping peptides, S = wild type
  DMS-derived PSSM value (averaged), position S13: 0.05759
Prey ATXN2, TLNPNAKEFNPRSF(averaged) over the two overlapping peptides, T = wild type
  DMS-derived PSSM value (averaged), position T1: 0.0418

## KSTLNPNAKEFNPRSF S15V (KSTLNPNAKEFNPRVF)
[2]
  DMS-derived PSSM value, position S15: 0.09383

## TLNPNAKEFNPRSF(averaged) R12Q (TLNPNAKEFNPQSF)
[12]
  DMS-derived PSSM value (averaged), position R12: 0.05602

## TLNPNAKEFNPRSF(averaged) F14E (TLNPNAKEFNPRSE)
[8]
  DMS-derived PSSM value (averaged), position F14: 0.01777
